The results in this text go back to publication PMC7026418, “The kinase polypharmacology landscape of clinical PARP inhibitors” (Scientific Reports, 2020).

What all share (assay): biochemical
Holding throughout (parameters): DiscoveRx KINOMEscan active site-directed competition binding; percent of control kinase bound to immobilised ligand

In assay [1] the target is T1, ACVR1B (Homo sapiens, UniProt P36896).
T1 sequence (P36896 1-505): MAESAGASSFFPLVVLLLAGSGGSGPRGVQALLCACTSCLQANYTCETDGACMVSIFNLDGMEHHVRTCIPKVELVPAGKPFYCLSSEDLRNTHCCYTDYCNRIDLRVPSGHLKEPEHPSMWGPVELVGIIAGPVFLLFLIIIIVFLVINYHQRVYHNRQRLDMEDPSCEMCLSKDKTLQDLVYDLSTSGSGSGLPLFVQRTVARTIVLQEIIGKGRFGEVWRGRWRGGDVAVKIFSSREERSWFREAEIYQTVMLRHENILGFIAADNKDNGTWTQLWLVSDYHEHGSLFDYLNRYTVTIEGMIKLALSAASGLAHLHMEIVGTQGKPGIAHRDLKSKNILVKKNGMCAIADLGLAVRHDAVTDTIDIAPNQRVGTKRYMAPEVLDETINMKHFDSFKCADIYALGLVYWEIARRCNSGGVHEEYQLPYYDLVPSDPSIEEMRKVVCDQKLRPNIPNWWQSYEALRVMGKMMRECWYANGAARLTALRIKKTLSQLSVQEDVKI

Assay [2] deals with CDK8 (Homo sapiens, UniProt P49336).
Assay [3] has as its target CSNK1E (Homo sapiens, UniProt P49674).
In assay [4] the target is T2, ERK8 (Homo sapiens, UniProt Q8TD08).
T2 construct: gene MAPK15
T2 sequence (Q8TD08 1-544): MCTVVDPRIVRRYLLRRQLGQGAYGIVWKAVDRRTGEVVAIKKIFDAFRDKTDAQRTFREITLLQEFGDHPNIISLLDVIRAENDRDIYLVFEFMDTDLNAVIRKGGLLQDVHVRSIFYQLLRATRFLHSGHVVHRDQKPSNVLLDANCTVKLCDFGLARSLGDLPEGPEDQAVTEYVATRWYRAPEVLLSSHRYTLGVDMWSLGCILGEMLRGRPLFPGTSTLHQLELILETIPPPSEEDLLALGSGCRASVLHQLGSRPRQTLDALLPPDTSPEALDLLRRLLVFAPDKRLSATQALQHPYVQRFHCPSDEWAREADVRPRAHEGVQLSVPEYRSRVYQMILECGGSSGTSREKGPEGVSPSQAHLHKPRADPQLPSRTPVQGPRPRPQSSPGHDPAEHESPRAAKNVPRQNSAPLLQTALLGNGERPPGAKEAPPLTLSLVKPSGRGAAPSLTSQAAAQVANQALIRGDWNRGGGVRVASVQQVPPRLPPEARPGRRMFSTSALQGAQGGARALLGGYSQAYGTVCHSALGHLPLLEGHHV

The target in assay [5] is FER (Homo sapiens, UniProt P16591).
In assay [6] the target is KIT(V559D,T670I) (Homo sapiens, UniProt P10721, T670I/V559D).
The target in assay [7] is T3, PHKG2 (Homo sapiens, UniProt P15735).
T3 sequence (P15735 1-406): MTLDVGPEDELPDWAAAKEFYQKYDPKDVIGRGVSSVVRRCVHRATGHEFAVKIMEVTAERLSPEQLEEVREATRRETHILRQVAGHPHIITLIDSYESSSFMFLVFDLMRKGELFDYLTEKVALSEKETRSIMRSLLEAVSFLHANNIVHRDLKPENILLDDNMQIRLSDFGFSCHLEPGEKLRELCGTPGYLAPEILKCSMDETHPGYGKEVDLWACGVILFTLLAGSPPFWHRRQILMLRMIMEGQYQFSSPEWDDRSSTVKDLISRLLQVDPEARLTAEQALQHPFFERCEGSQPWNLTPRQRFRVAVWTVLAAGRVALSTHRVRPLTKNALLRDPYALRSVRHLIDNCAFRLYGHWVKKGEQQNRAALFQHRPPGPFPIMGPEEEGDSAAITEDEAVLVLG

For assay [8], the target named is RIOK2 (Homo sapiens, UniProt Q9BVS4).
For assay [9], the target named is T4, RIPK1 (Homo sapiens, UniProt Q13546).
T4 sequence (Q13546 1-671): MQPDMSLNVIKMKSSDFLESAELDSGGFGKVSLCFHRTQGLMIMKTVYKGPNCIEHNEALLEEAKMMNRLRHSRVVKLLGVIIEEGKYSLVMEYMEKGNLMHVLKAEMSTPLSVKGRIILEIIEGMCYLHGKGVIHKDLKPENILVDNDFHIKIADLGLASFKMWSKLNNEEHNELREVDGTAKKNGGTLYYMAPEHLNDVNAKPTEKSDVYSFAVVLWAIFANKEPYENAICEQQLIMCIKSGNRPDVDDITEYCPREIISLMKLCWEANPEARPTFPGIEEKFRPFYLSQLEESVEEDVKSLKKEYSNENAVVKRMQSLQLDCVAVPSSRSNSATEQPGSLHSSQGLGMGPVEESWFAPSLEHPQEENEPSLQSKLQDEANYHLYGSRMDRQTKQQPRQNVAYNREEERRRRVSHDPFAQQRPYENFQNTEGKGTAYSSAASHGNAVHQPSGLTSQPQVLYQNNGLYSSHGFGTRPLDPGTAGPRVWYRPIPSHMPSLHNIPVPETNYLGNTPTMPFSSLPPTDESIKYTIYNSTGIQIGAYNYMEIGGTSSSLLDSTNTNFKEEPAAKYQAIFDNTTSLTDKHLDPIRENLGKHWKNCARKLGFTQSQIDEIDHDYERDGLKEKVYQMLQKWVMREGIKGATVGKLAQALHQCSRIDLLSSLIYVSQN

The mark [10] stands for this setting: read-out: Niraparib (MK-4827) / %Ctrl @ 10000nM.
[11] abbreviates: read-out: Talazoparib (BMN 673) / %Ctrl @ 10000nM.
The mark [12] stands for this setting: read-out: Rucaparib / %Ctrl @ 10000nM, binding competition, % of control.
The mark [13] stands for this setting: read-out: Olaparib / %Ctrl @ 10000nM.

SMILES strings stand for the structures. Like-named read-outs stand apart in the source and are kept apart here.

CSNK1E, sequence (P49674 whole entry): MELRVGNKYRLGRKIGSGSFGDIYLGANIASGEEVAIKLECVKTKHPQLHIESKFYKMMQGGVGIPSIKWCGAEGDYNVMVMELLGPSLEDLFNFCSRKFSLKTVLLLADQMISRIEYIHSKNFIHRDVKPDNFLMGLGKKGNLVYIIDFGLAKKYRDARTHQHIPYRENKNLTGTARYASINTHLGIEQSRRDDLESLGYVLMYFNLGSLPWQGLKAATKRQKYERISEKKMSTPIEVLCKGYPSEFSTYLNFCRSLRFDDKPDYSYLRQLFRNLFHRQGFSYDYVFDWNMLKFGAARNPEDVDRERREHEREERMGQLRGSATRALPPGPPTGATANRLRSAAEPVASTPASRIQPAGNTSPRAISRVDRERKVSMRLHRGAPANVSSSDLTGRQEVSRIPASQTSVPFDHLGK
FER, sequence (P16591 whole entry): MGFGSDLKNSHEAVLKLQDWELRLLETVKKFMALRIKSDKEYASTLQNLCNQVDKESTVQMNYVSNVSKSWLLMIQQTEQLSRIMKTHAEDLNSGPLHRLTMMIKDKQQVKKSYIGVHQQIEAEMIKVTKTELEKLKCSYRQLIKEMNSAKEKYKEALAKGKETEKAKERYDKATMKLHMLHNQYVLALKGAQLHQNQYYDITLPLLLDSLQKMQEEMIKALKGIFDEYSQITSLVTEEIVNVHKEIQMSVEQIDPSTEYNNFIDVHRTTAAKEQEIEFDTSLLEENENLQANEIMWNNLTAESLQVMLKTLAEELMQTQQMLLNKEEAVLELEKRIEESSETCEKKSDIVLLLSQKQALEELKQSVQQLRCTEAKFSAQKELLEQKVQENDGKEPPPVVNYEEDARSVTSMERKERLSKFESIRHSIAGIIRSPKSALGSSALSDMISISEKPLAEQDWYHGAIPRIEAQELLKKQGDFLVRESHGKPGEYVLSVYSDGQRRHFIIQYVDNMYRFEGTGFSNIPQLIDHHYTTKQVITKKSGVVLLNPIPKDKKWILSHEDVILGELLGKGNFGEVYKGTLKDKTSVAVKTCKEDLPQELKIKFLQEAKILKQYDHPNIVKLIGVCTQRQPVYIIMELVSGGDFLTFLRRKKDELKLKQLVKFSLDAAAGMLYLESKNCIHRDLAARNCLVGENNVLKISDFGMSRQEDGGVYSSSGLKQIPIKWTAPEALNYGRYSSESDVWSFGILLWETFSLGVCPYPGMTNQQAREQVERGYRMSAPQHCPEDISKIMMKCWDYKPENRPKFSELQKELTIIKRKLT
RIOK2, sequence (Q9BVS4 whole entry): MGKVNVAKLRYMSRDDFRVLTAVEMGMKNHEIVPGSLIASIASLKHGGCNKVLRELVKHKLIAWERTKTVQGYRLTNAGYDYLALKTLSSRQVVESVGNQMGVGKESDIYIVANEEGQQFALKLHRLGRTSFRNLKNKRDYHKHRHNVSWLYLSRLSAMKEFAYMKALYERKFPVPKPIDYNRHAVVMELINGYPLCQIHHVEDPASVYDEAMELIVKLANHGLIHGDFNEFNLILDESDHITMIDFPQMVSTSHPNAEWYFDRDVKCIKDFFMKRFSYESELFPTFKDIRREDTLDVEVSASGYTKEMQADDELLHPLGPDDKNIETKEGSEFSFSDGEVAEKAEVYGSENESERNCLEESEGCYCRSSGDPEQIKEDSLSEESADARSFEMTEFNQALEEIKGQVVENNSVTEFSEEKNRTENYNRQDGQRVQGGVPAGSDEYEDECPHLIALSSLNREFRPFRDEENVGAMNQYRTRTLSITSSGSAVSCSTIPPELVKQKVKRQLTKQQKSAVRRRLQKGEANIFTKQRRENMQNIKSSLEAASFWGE
KIT(V559D,T670I), sequence (P10721 whole entry V559D/T670I): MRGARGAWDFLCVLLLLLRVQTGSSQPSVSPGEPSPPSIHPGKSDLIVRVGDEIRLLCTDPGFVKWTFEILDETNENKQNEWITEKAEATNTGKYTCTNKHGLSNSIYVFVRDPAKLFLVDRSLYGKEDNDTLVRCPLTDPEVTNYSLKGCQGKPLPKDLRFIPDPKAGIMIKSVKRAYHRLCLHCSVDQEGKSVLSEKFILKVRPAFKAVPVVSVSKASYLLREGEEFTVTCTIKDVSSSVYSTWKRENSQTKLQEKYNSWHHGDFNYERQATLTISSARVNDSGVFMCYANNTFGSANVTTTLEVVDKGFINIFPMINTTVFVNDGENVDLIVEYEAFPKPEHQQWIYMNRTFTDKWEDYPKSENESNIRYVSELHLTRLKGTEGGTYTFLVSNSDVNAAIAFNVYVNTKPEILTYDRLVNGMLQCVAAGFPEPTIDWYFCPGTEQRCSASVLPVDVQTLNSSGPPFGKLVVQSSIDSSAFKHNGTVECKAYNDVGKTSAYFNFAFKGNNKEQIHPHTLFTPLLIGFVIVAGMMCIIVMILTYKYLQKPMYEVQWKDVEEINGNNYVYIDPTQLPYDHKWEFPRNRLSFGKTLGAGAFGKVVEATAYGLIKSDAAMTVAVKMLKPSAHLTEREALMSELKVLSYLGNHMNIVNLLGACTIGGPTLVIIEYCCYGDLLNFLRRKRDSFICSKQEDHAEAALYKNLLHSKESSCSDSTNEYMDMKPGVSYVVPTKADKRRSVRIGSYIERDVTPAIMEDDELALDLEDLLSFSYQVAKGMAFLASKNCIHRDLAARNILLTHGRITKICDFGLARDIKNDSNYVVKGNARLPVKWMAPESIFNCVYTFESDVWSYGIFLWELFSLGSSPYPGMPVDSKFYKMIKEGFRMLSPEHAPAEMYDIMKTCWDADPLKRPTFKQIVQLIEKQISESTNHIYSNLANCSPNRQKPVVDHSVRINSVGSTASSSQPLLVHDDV
CDK8, sequence (P49336 whole entry): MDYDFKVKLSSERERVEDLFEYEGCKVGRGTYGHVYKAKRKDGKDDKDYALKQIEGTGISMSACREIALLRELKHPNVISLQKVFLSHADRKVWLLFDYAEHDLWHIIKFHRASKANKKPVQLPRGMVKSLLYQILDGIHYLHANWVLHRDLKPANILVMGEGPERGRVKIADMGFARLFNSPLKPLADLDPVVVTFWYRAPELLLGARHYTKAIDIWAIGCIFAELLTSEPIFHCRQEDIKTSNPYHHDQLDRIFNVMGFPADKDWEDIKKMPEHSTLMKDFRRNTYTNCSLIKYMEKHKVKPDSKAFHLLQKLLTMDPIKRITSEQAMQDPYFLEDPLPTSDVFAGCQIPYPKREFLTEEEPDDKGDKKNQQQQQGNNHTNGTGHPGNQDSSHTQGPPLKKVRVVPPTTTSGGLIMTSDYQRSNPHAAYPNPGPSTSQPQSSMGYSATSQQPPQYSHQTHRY

Regarding `NC(=O)c1cccc2cn(-c3ccc([C@@H]4CCCNC4)cc3)nc12` [Niraparib], the percent of control binding at 10 µM amounted to 95% in assay [1] (setting [10]); 68% in [2] (setting [10]); 57% in [3] (setting [10]); 61% in assay [4] (setting [10]); 93% in assay [5] (setting [10]); 97% in assay [6] (setting [10]). The percent of control binding at 10 µM in [7] (setting [10]) came to 87%; in assay [8] (setting [10]), 67%; in assay [9] (setting [10]) it was 91%.
Take `Cn1ncnc1[C@H]1c2n[nH]c(=O)c3cc(F)cc(c23)N[C@@H]1c1ccc(F)cc1` [Talazoparib]: the percent of control binding at 10 µM in assay [1] (setting [11]) came to 77%; in assay [2] (setting [11]), 99%; in [3] (setting [11]) it was 69%; in [4] (setting [11]), 88%; in [5] (setting [11]), 94%; in assay [6] (setting [11]), 100%. In addition, the percent of control binding at 10 µM in [7] (setting [11]) was found to be 97%; in [8] (setting [11]), 100%; in assay [9] (setting [11]), 99%.
`CNCc1ccc(-c2[nH]c3cc(F)cc4c3c2CCNC4=O)cc1` [Rucaparib]: the percent of control binding at 10 µM was found to be 89% in assay [1] (setting [12]); 86% in assay [2] (setting [12]); 76% in [3] (setting [12]); 86% in assay [4] (setting [12]); 95% in assay [5] (setting [12]); 91% in assay [6] (setting [12]). The figures for the percent of control binding at 10 µM in assay [7] (setting [12]), in assay [8] (setting [12]) and in assay [9] (setting [12]) were 70%, 69% and 99%, respectively.
`O=C(c1cc(Cc2n[nH]c(=O)c3ccccc23)ccc1F)N1CCN(C(=O)C2CC2)CC1` [Olaparib]: the percent of control binding at 10 µM in assay [1] (setting [13]) came to 100%; in assay [2] (setting [13]), 100%; in assay [3] (setting [13]), 90%; in [4] (setting [13]), 97%; in assay [5] (setting [13]) it was 100%; in assay [6] (setting [13]) it was 92%. For the same compound, the percent of control binding at 10 µM in assay [7] (setting [13]) is 100%; in [8] (setting [13]) it was 84%; in [9] (setting [13]) it was 100%.
